Data taken from patent US20060173041A1, “Sulphonylpiperidine derivatives containing an aryl or heteroaryl group for use as matrix metalloproteinase inhibitors” (priority 2002, published 2006).

Biological target: T1, proTNFα convertase enzyme (TACE) (Homo sapiens, UniProt P78536)
T1 construct: partially purified, isolated enzyme assay, the enzyme being obtained from the membranes of THP-1; endogenous in cells; host or cells: THP-1 cell membranes, partially purified as in Mohler et al. (1994) Nature 370:218-220
Assay: partially purified isolated enzyme assay for proTNFα convertase (TACE)
Assay type: biochemical
Conditions: 10 μM of compound; enzyme from membranes of THP-1; 26° C. for 4 hours
Method: Recombinant human proMMP13 may be expressed and purified as described by Knauper et al. [V. Knauper et al., (1996) The Biochemical Journal 271:1544-1550 (1996)]. […] Activity is determined by measuring the fluorescence at λex 328 nm and λem 393 nm. Percent inhibition may be calculated as follows: % Inhibition is equal to the [Fluorescenceplus inhibitor−Fluorescencebackground] divided by the [Fluorescenceminus inhibitor−Fluorescencebackground].
The ability of the compounds to inhibit proTNFα convertase enzyme (TACE) has been assessed using a partially purified, isolated enzyme assay, the enzyme being obtained from the membranes of THP-1 as described by K. M. Mohler et al., (1994) Nature 370:218-220. The purified enzyme activity and inhibition thereof was determined by incubating the partially purified enzyme in the presence or absence of test compounds using the substrate 4′,5′-Dimethoxy-fluoresceinyl Ser.Pro.Leu.Ala.Gln.Ala.Val.Arg.Ser.Ser.Ser.Arg.Cys(4-(3-succinimid-1-yl)fluorescein)-NH2 in assay buffer (50 mM Tris HCl, pH 7.4 containing 0.1% (w/v) Triton X-100 and 2 mM CaCl2), at 26° C. for 4 hours. The amount of inhibition was determined as for MMP13 except λex 485 nm and λem 538 nm were used. […]

T1 sequence (P78536 215-824): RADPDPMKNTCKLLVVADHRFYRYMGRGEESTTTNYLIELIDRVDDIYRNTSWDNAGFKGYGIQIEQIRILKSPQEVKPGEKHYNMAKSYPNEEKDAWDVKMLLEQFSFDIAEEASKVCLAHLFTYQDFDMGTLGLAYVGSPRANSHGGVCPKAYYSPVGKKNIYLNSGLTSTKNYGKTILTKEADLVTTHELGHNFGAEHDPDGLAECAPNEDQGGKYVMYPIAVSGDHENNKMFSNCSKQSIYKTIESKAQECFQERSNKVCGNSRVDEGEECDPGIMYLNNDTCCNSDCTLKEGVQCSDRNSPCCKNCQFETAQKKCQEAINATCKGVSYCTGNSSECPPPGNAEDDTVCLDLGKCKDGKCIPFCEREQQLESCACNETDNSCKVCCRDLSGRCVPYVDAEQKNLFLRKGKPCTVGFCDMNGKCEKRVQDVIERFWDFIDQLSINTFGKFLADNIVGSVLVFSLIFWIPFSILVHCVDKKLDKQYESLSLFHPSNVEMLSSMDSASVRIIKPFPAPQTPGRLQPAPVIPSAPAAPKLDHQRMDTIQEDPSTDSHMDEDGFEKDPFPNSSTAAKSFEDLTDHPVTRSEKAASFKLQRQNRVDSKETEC

Row | Compound | inhibition at 10 µM [%]
1 | CC(C)Oc1ccccc1OC1CCN(S(=O)(=O)CC(c2ccccc2)N(O)C=O)CC1 (racemic) [Example 8, (R/S)-hydroxy(2-{[4-(2-isopropoxyphenoxy)piperidin-1-yl]sulphonyl}-1-phenylethyl)formamide] | 81
2 | CC(C)NC(=O)c1ccccc1OC1CCN(S(=O)(=O)CC(c2ccccc2)N(O)C=O)CC1 (racemic) [Example 14] | 76
